Our source for the Emax values is patent US10988523B2, “Modified lipidated Relaxin B chain peptides and their therapeutic use” (Sanofi, priority 2018, dated 2021).

The structures appear in SMILES notation. *1 amine or outer side, *2 acyl side, *3 side chain or, on linkers, in order; H or OH if unused. Where a SMILES comes first, the peptide text is derived from it. Side-chain parts run from the residue outwards. [ ]: non-standard residue; d: D form. The star is where a group is joined. γGlu = O=C(O)[C@H](CCC(=O)[*:2])N[*:1]; Stearoyl = CCCCCCCCCCCCCCCCCC(=O)*; Palmitoyl = CCCCCCCCCCCCCCCC(=O)*; PEG4 = NCCOCCOCCOCCOCCC(=O)O; αMeK = C[C@](N)(CCCCN)C(=O)O; Nle = CCCC[C@H](N)C(=O)O; AEEA = NCCOCCOCC(=O)O; Aib = CC(C)(N)C(=O)O

The target in this experiment is T1, RXFP1 (Homo sapiens, UniProt Q9HBX9).
T1 construct: OVCAR5 cells expressing endogenous RXFP1; endogenous in cells; host or cells: OVCAR5 cells
T1 sequence (Q9HBX9 1-757): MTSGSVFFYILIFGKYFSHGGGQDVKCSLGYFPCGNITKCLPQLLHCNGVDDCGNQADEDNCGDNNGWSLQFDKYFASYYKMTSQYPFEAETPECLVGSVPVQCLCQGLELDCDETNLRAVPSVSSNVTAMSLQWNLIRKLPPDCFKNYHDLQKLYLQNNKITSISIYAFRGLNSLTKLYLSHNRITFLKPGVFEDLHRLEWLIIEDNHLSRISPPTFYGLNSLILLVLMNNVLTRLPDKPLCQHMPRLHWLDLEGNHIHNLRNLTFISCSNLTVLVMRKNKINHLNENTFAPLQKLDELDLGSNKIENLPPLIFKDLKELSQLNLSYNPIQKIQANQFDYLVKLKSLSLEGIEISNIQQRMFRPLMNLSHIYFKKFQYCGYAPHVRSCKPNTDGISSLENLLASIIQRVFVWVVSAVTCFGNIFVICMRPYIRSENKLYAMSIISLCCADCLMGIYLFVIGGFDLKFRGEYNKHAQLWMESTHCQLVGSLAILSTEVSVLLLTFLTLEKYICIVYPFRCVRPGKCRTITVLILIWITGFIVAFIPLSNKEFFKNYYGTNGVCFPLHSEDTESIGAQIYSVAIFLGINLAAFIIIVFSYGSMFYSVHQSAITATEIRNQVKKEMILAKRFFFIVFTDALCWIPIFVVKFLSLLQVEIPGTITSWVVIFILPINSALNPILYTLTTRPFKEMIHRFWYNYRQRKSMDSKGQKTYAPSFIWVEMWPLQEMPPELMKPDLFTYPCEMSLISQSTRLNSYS
The experiment in a line: OVCAR5 cAMP assay (HTRF), RXFP1 agonist activity. As to conditions: OVCAR-5; maximal cAMP relative to H2-relaxin maximum (100%); read-out: EMax, OVCAR 5 cells (cAMP). The format is cell-based. Put shortly:
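OVCAR5 cells (endogenous RXFP1) pretreated 40 min at 37° C with 1 mM IBMX, then exposed to peptides in serum-free medium for 30 min at 37° C. Lysate cAMP read by HTRF; EC50 from variable-slope sigmoidal fit; Emax as % of H2-relaxin maximal cAMP in same run.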
On the technique in general: cAMP levels reflect the balance of adenylyl cyclase and phosphodiesterase activity.

One may read the Emax as the maximal effect, on the per cent scale that the assay sets. With `CCCCCCCCCCCCCCCC(=O)N[C@@H](CCC(=O)N[C@@H](CCC(=O)N[C@@H](CCC(=O)NCCCC[C@H](NC(=O)COCCOCCNC(=O)COCCOCCNC(=O)COCCOCCNC(=O)COCCOCCNC(=O)[C@H](CCCCNC(C)=O)NC(=O)[C@H](C)NC(=O)[C@H](CCCNC(=N)N)NC(=O)[C@](C)(CCCCN)NC(=O)[C@H](CO)NC(=O)[C@H](Cc1ccccc1)NC(=O)[C@@H](NC(=O)[C@H](CO)NC(=O)[C@H](CCCC)NC(=O)CNC(=O)[C@H](CCC(=O)O)NC(=O)C(C)(C)NC(=O)C(C)(C)NC(=O)[C@@H](NC(=O)[C@H](CCCCNC(C)=O)NC(=O)[C@H](C)NC(=O)[C@H](CCCNC(=N)N)NC(=O)[C@@H](NC(=O)[C@H](CCCCN)NC(=O)[C@H](CCC(=O)O)NC(=O)[C@H](CCCNC(=N)N)NC(=O)CNC(=O)[C@H](CCC(=O)O)NC(=O)[C@H](CC(C)C)NC(C)=O)C(C)C)[C@@H](C)CC)[C@@H](C)O)C(N)=O)C(=O)O)C(=O)O)C(=O)O` [compound 192] (Ac-LEGREKVRAK(Ac)I[Aib][Aib]EG[Nle]STFS[αMeK]RAK(Ac)[AEEA][AEEA][AEEA][AEEA]K([γGlu-γGlu-γGlu-Palmitoyl])-NH2), the Emax came out at 91%.

With `CCCCCCCCCCCCCCCC(=O)NCCCC[C@H](NC(=O)[C@H](CCCCN)NC(=O)[C@H](CCCNC(=N)N)NC(=O)C(C)(C)NC(=O)[C@H](CO)NC(=O)[C@H](Cc1c[nH]c2ccccc12)NC(=O)[C@@H](NC(=O)[C@H](CO)NC(=O)[C@H](CCCC)NC(=O)CNC(=O)[C@H](CCC(=O)O)NC(=O)C(C)(C)NC(=O)C(C)(C)NC(=O)[C@@H](NC(=O)[C@H](C)NC(=O)[C@H](C)NC(=O)[C@H](CCCNC(=N)N)NC(=O)[C@@H](NC(=O)[C@H](CCCCN)NC(=O)[C@H](CCC(=O)O)NC(=O)[C@H](CCCNC(=N)N)NC(=O)CNC(=O)[C@H](CCC(=O)O)NC(=O)[C@H](CC(C)C)NC(C)=O)C(C)C)[C@@H](C)CC)[C@@H](C)O)C(N)=O` [compound 1] (Ac-LEGREKVRAAI[Aib][Aib]EG[Nle]STWS[Aib]RKK(Palmitoyl)-NH2), the Emax is 85%.

For the compound `CCCCCCCCCCCCCCCC(=O)N[C@@H](CCC(=O)N[C@@H](CCC(=O)NCCCC[C@H](NC(=O)[C@H](CCCCN)NC(=O)[C@H](CCCNC(=N)N)NC(=O)C(C)(C)NC(=O)[C@H](CO)NC(=O)[C@H](Cc1c[nH]c2ccccc12)NC(=O)[C@@H](NC(=O)[C@H](CO)NC(=O)[C@H](CCCC)NC(=O)CNC(=O)[C@H](CCC(=O)O)NC(=O)C(C)(C)NC(=O)C(C)(C)NC(=O)[C@@H](NC(=O)[C@H](C)NC(=O)[C@H](C)NC(=O)[C@H](CCCNC(=N)N)NC(=O)[C@@H](NC(=O)[C@H](CCCCN)NC(=O)[C@H](CCC(=O)O)NC(=O)[C@H](CCCNC(=N)N)NC(=O)CNC(=O)[C@H](CCC(=O)O)NC(=O)[C@H](CC(C)C)NC(=O)[C@H](CCC(=O)O)NC(C)=O)C(C)C)[C@@H](C)CC)[C@@H](C)O)C(N)=O)C(=O)O)C(=O)O` [compound 4] (Ac-ELEGREKVRAAI[Aib][Aib]EG[Nle]STWS[Aib]RKK([γGlu-γGlu-Palmitoyl])-NH2), the Emax is 99%.

For the compound `CCCCCCCCCCCCCCCCCC(=O)N[C@@H](CCC(=O)N[C@@H](CCC(=O)N[C@@H](CCC(=O)NCCCC[C@H](NC(=O)CCOCCOCCOCCOCCNC(=O)CCOCCOCCOCCOCCNC(=O)[C@H](CCCCNC(C)=O)NC(=O)[C@H](CCCCN)NC(=O)[C@H](CCCNC(=N)N)NC(=O)C(C)(C)NC(=O)[C@H](CO)NC(=O)[C@H](Cc1c[nH]c2ccccc12)NC(=O)[C@@H](NC(=O)[C@H](CO)NC(=O)[C@H](CCCC)NC(=O)CNC(=O)[C@H](CCC(=O)O)NC(=O)C(C)(C)NC(=O)C(C)(C)NC(=O)[C@@H](NC(=O)[C@H](CCCCNC(C)=O)NC(=O)[C@H](C)NC(=O)[C@H](CCCNC(=N)N)NC(=O)[C@@H](NC(=O)[C@H](CCCCN)NC(=O)[C@H](CCC(=O)O)NC(=O)[C@H](CCCNC(=N)N)NC(=O)CNC(=O)[C@H](CCC(=O)O)NC(=O)[C@H](CC(C)C)NC(C)=O)C(C)C)[C@@H](C)CC)[C@@H](C)O)C(N)=O)C(=O)O)C(=O)O)C(=O)O` [compound 124] (Ac-LEGREKVRAK(Ac)I[Aib][Aib]EG[Nle]STWS[Aib]RKK(Ac)[PEG4][PEG4]K([γGlu-γGlu-γGlu-Stearoyl])-NH2), the maximal effect (Emax) came to 88%.
